What was measured:
[1] = tested on: rats with Partial Sciatic Nerve Ligation (PSNL); assay: Partial Sciatic Nerve Ligation (PSNL) thermal hyperalgesia test; assay type: in vivo, rat; settings: 50 μM
Experimental: FIG. 9. […] Time-course of the effects of 50 μM (100 μL) of AppCH2ppA on PWL.
PSNL, with tight ligation of 33-50% of the sciatic nerve trunk, is a neuropathic pain model. We sub-cutaneously injected 50 μM of AppCH2ppA ([…]) on thermal hyperalgesia in rats with PSNL. […] Results are expressed as mean+/−S.E.M. In this model, the antinociceptive effect is 62%.

[2] = tested on: native P2X3 receptors, trigeminal ganglia (TG) neurons; assay: α,β-meATP-induced currents in cultured trigeminal ganglia neurons; assay type: cell-based, rat; settings: 1 μM, TG neurons
Experimental: Rat trigeminal (TG), nodose (NG) or dorsal root ganglion (DRG) neurons in culture were prepared as described previously (Sokolova et al., 2001; Simonetti et al., 2006). Neurons were plated on poly-L-lysine (0.2 mg/mL)-coated Petri dishes and cultured for 1 to 2 days under an atmosphere containing 5% CO2. Cells were used within 2 days of plating when they lacked processes. HEK293T cells were prepared as reported previously (Fabbretti et al., 2004; Sokolova et al., 2004) and transfected with rat full-length P2X3 cDNA subcloned into pIRES2-EGFP (Clontech, Mountain View, Calif., USA).
Trigeminal, nodose, DRG neurons or HEK cells were recorded in the whole-cell configuration while being continuously superfused (at 2 mL/min) with control solution containing (in mM): 152 NaCl, 5 KCl, 1 MgCl2, 2 CaCl2, 10 glucose, and 10 HEPES; pH was adjusted to 7.4 with NaOH and osmolarity was adjusted to 320 mOsM with glucose. […] Responses to selective P2X3 receptor agonist α,β-methylene-ATP (α,β-meATP; resistant to ectoATPase hydrolysis, Sigma-Aldrich) were measured using an EPC-9 amplifier and HEKA Patch Master software (HEKA Electronik, Germany). Cells were voltage-clamped at −70 mV. In most cells, series resistance was compensated by 80%. […]
The peak amplitudes of the responses were measured using HEKA Patch Master software. […]

## Nc1ncnc2c1ncn2[C@@H]1O[C@H](COP(=O)(O)OP(=O)(O)CP(=O)(O)OP(=O)(O)OC[C@H]2O[C@@H](n3cnc4c(N)ncnc43)C(O)C2O)C(O)C1O (stereo in doubt) [AppCH2ppA]
[1]; 100 μL, subcutaneous
  effect on thermal hyperalgesia (PWL): reduced thermal hyperalgesia
[1]; sub-cutaneous, thermal hyperalgesia, PWL
  antinociceptive effect: 62%

## Nc1ncnc2c1ncn2[C@@H]1O[C@H](COP(=O)(O)OP(=O)(O)NP(=O)(O)OP(=O)(O)OC[C@H]2O[C@@H](n3cnc4c(N)ncnc43)C(O)C2O)C(O)C1O (stereo in doubt) [AppNHppA]
[2]
  inhibition of sustained residual component: 15±6%

Reference: patent US20150119352A1, “DINUCELOSIDE POLYPHOSPHATES FOR THE TREATMENT OF PAIN” (GlobalAcorn Ltd., priority 2012, published 2015)
